Measured values from ChEMBL document CHEMBL4665853, “Inhibition of Macrophage Migration Inhibitory Factor by a Chimera of Two Allosteric Binders” (ACS Med Chem Lett, 2020).

Tests used:
[1] = target: T1, Macrophage migration inhibitory factor (Homo sapiens, UniProt P14174); assay: Binding affinity to recombinant biotinylated human MIF expressed in Escherichia coli BL21 DE3 by surface plasmon resonance assay
T1 sequence (P14174 whole entry): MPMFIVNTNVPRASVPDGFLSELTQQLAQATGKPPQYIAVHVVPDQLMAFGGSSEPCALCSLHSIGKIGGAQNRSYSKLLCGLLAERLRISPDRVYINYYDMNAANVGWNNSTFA

[2] = target: T1, Macrophage migration inhibitory factor; assay: Inhibition of recombinant biotinylated human MIF tautomerase activity expressed in Escherichia coli BL21 DE3 assessed as reduction in tautomerization of keto-p-hydroxyphenylpyruvate using keto-p-hydroxyphenylpyrivate as substrate preincubated for 30 mins followed by substrate addition by HTS assay
[3] = target: T1, Macrophage migration inhibitory factor; assay: Inhibition of recombinant human MIF expressed in Escherichia coli BL21 DE3 binding to recombinant soluble human CD74 receptor ectodomain (73 to 232 residues) expressed in Escherichia coli BL21 (DE3) pLysS using p-nitrophenyl phosphate as substrate by ELISA
[4] = target: T1, Macrophage migration inhibitory factor; assay: Inhibition of MIF-induced IL-8 secretion in human foreskin fibroblasts incubated for 30 mins by ELISA
[5] = target: T1, Macrophage migration inhibitory factor; assay: Non-competitive inhibition of recombinant human MIF assessed as inhibition constant using varying levels of p-hydroxyphenylpyruvate as substrate by Lineweaver-Burk plot analysis

| Kd [1] [µM] | IC50 [2] [µM] | IC50 [3] [µM] | IC50 [4] [µM] | Ki [5] [µM] | Compound |
| --- | --- | --- | --- | --- | --- |
| 6.86 | 7.59 | 0.93 | 4.42 | – | CC(C)C(=O)c1c(Cc2cccc(/N=N/c3ccc4c(S(=O)(=O)O)cc(S(=O)(=O)O)c(N)c4c3O)c2)nn2ccccc12 |
| 1.4 | – | – | – | 30.9 | CC(C)C(=O)c1c(C(C)C)nn2ccccc12 [IBUDILAST] |
